From article PMC12645083, “Microwave‐Enhanced Synthesis of 2‐Styrylquinoline‐4‐Carboxamides With Promising Anti‐Lymphoma Activity” (Archiv Der Pharmazie, 2025)

Key:
[1] = tested on: panel of five tumor cell lines (HD-MB03, RPMI-8402, SU-DHL-8, A549, MDA-MB-231); assay: Antiproliferative activity, range over the panel of five tumor cell lines; type: cell-based; details: Homo sapiens; range over the active cell lines of the five-line panel; 72 h
Experimental: The synthesized quinoline derivatives 4a–z and 4aa–ah were evaluated in vitro for their antiproliferative activity against a panel of five tumor cell lines (HD‐MB03, medulloblastoma; RPMI‐8402, T‐lymphoblastic leukemia; SU‐DHL‐8, B lymphocyte, large cell lymphoma; A549, non‐small cell lung cancer; MDA‐MB‐231, triple‐negative breast cancer) (Table 2). […] Replacing the 4‐Cl group with a trifluoromethyl group (4ac) reduced antiproliferative activity.
(§1) To test the newly synthesized compounds, various human cell lines were employed. HD‐MB03 cells were purchased from DSMZ (Braunschweig, Germany), while A549, MDA‐MB‐231, RPMI‐8420, SU‐DHL‐8, TOLEDO, VL51, SU‐DHL‐1, SU‐DHL‐18, and KM‐H2 were obtained from ATCC (Manassas, VA, USA). Cells were cultured in DMEM (for MDA‐MB‐231 and A549) or RPMI‐1640 (for RPMI‐8420, SU‐DHL‐8, TOLEDO, VL51, SU‐DHL‐1, SU‐DHL‐18, KM‐H2, and HD‐MB03) media (Gibco, Milan, Italy). Both media were supplemented with 115 units/mL penicillin G (Gibco, Milan, Italy), 115 µg/mL streptomycin (Invitrogen, Milan, Italy), and 10% fetal bovine serum (Invitrogen, Milan, Italy). Peripheral blood mononuclear cells (PBMCs) were isolated from healthy donors as previously described. For cytotoxicity assays, PBMCs were resuspended at 5 × 10⁵ cells/mL in complete RPMI medium with or without 2.5 µg/mL phytohemagglutinin (PHA) (Irvine Scientific) to stimulate T‐cell activation and proliferation. All cell lines were maintained at 37°C in a humidified atmosphere containing 5% CO₂. All compounds were dissolved in DMSO at a 10 mM stock concentration. For dose–response assays, cells were seeded in 96‐well plates at densities optimized for each cell line: HD‐MB03 at 10,000 cells/well, A549 at 4000 cells/well, and MDA‐MB‐231 at 7000 cells/well. All other cell lines were seeded at 20,000 cells/well in a final volume of 100 µL per well. After 24 h, cells were treated with a 6‐point serial dilution of compounds starting from 10 µM, in triplicate for statistical analysis. Seventy‐2 h posttreatment, 10 µL of resazurin solution (100 µg/mL) was added to each well, and cells were incubated for an additional 3–6 h. Fluorescence was measured using a Spark 10 M microplate reader (Tecan Group Ltd., Männedorf, Switzerland) with excitation at 535 nm and emission at 600 nm. The IC₅₀ was defined as the concentration of compound required to inhibit cell proliferation by 50% compared to cells treated with the highest DMSO concentration.

MDA-MB-231 = assay: In vitro antiproliferative activity, resazurin cell viability; type: cell-based; details: Homo sapiens, triple-negative breast cancer, 72 h of treatment, mean ± SEM
Experimental: as §1
(§2) To test the newly synthesized compounds, various human cell lines were employed. HD-MB03 cells were purchased from DSMZ (Braunschweig, Germany), while A549, MDA-MB-231, RPMI-8420, SU-DHL-8, TOLEDO, VL51, SU-DHL-1, SU-DHL-18, and KM-H2 were obtained from ATCC (Manassas, VA, USA). Cells were cultured in DMEM (for MDA-MB-231 and A549) or RPMI-1640 (for RPMI-8420, SU-DHL-8, TOLEDO, VL51, SU-DHL-1, SU-DHL-18, KM-H2, and HD-MB03) media (Gibco, Milan, Italy). Both media were supplemented with 115 units/mL penicillin G (Gibco, Milan, Italy), 115 µg/mL streptomycin (Invitrogen, Milan, Italy), and 10% fetal bovine serum (Invitrogen, Milan, Italy). Peripheral blood mononuclear cells (PBMCs) were isolated from healthy donors as previously described. ^[1] For cytotoxicity assays, PBMCs were resuspended at 5 × 10⁵ cells/mL in complete RPMI medium with or without 2.5 µg/mL phytohemagglutinin (PHA) (Irvine Scientific) to stimulate T cell activation and proliferation. All cell lines were maintained at 37 °C in a humidified atmosphere containing 5% CO₂. All compounds were dissolved in DMSO at a 10 mM stock concentration. For dose–response assays, cells were seeded in 96-well plates at densities optimized for each cell line: HD-MB03 at 10,000 cells/well, A549 at 4,000 cells/well, and MDA-MB-231 at 7,000 cells/well. All other cell lines were seeded at 20,000 cells/well in a final volume of 100 µL per well. After 24 hours, cells were treated with a 6-point serial dilution of compounds starting from 10 µM, in triplicate for statistical analysis. Seventy-two hours post-treatment, 10 µL of resazurin solution (100 µg/mL) was added to each well, and cells were incubated for an additional 3–6 hours. Fluorescence was measured using a Spark 10M microplate reader (Tecan Group Ltd., Männedorf, Switzerland) with excitation at 535 nm and emission at 600 nm. […]

A549 = assay: as above; type: cell-based; details: Homo sapiens, non-small cell lung cancer, 72 h of treatment, mean ± SEM
Experimental: as §1, §2

RPMI-8402 = assay: as above; type: cell-based; details: Homo sapiens, T-lymphoblastic leukemia cells, 72 h of treatment, mean ± SEM
Experimental: as §1, §2

HD-MB03 = assay: as above; type: cell-based; details: Homo sapiens, medulloblastoma cells, 72 h of treatment, mean ± SEM, at least three experiments
Experimental: as §1, §2

SU-DHL-8 = assay: as above; type: cell-based; details: Homo sapiens, B lymphocyte, large cell lymphoma, 72 h of treatment, mean ± SEM
Experimental: as §1, §2

Ly10 (DLBCL) = details: Figure 1; cited from earlier work
[2] = tested on: VL51 (splenic B-cell lymphoma); details: Figure 1; cited from earlier work
TMD8 (DLBCL) = details: Figure 1; cited from earlier work
Ly1 (DLBCL) = details: Figure 1; cited from earlier work

Row | IC50 [1] [µM] | Compound | IC50 (MDA-MB-231) [µM] | IC50 (A549) [µM] | IC50 (RPMI-8402) [µM] | IC50 (HD-MB03) [µM] | IC50 (SU-DHL-8) [µM] | IC50 (Ly10 (DLBCL)) [µM] | IC50 [2] [µM] | IC50 (TMD8 (DLBCL)) [µM] | IC50 (Ly1 (DLBCL)) [µM]
1 | 3.2 to 8.97 | O=C(Nc1ccc(C(F)(F)F)cc1)c1cc(/C=C/c2ccc(Cl)c(Cl)c2)nc2ccccc12 [4ab, (E)-2-(3,4-dichlorostyryl)-N-(4-(trifluoromethyl)phenyl)quinoline-4-carboxamide] | > 10 | > 10 | > 10 | 7.83 ± 0.98 | 6.54 ± 0.44 |  |  |  | 
2 | 3.2 to 8.97 | O=C(Nc1ccc(C(F)(F)F)cc1)c1cc(/C=C/c2ccccc2)nc2ccccc12 [4h, (E)-2-styryl-N-(4-(trifluoromethyl)phenyl)quinoline-4-carboxamide] | > 10 | > 10 | 8.97 ± 0.75 | > 10 | 7.09 ± 0.25 |  |  |  | 
3 |  | Cc1cccc(/C=C/c2cc(C(=O)Nc3ccc([N+](=O)[O-])c(C(F)(F)F)c3)c3ccccc3n2)c1 [4u, (E)-2-(3-methylstyryl)-N-(4-nitro-3-(trifluoromethyl)phenyl)quinoline-4-carboxamide] | > 10 | > 10 | > 10 | > 10 | > 10 |  |  |  | 
4 |  | COc1ccc(/C=C/c2cc(C(=O)Nc3ccc([N+](=O)[O-])c(C(F)(F)F)c3)c3ccccc3n2)cc1 [4v, (E)-2-(4-methoxystyryl)-N-(4-nitro-3-(trifluoromethyl)phenyl)quinoline-4-carboxamide] | > 10 | > 10 | > 10 | > 10 | > 10 |  |  |  | 
5 |  | O=C(Nc1ccc([N+](=O)[O-])c(C(F)(F)F)c1)c1cc(/C=C/c2ccc(Cl)c(Cl)c2)nc2ccccc12 [4x, (E)-2-(3,4-dichlorostyryl)-N-(4-nitro-3-(trifluoromethyl)phenyl)quinoline-4-carboxamide] | > 10 | > 10 | > 10 | > 10 | > 10 |  |  |  | 
6 | 3.2 to 8.97 | Cc1cccc(/C=C/c2cc(C(=O)Nc3ccc(C(F)(F)F)cc3)c3ccccc3n2)c1 [4y, (E)-2-(3-methylstyryl)-N-(4-(trifluoromethyl)phenyl)quinoline-4-carboxamide] | 7.84 ± 0.65 | 8.73 ± 0.74 | 3.2 ± 0.19 | 3.84 ± 0.22 | 3.25 ± 0.23 |  |  |  | 
7 | 3.2 to 8.97 | O=C(Nc1ccc(C(F)(F)F)cc1)c1cc(/C=C/c2ccc(Cl)cc2)nc2ccccc12 [4z, (E)-2-(4-chlorostyryl)-N-(4-(trifluoromethyl)phenyl)quinoline-4-carboxamide] | > 10 | > 10 | > 10 | 6.73 ± 1.15 | 4.77 ± 0.32 |  |  |  | 
8 |  | C[C@H](Nc1ncnc2[nH]cnc12)c1cc2ccc(F)cc2nc1-c1ccccn1 [ACP-319] |  |  |  |  |  | 0.8 | 3 | 0.15 | 
9 |  | O=S(=O)(Nc1cccc2cccnc12)c1ccc(F)cc1 [CU-O47] |  |  |  |  |  | 0.7 |  |  | 0.7

Row | Compound | IC50 [1] [µM] | IC50 (MDA-MB-231) [µM] | IC50 (A549) [µM] | IC50 (RPMI-8402) [µM] | IC50 (HD-MB03) [µM] | IC50 (SU-DHL-8) [µM] | IC50 (Ly10 (DLBCL)) [µM] | IC50 [2] [µM] | IC50 (TMD8 (DLBCL)) [µM] | IC50 (Ly1 (DLBCL)) [µM]
10 | O=C(Nc1ccc([N+](=O)[O-])c(C(F)(F)F)c1)c1cc(/C=C/c2ccccc2)nc2ccccc12 [4j, (E)-N-(4-nitro-3-(trifluoromethyl)phenyl)-2-styrylquinoline-4-carboxamide] | 3.2 to 8.97 | > 10 | > 10 | > 10 | 8.23 ± 0.47 | 3.86 ± 0.44 |  |  |  | 
11 | O=C(Nc1ccc([N+](=O)[O-])c(C(F)(F)F)c1)c1cc(/C=C/c2ccc(Cl)cc2)nc2ccccc12 [4w, (E)-2-(4-chlorostyryl)-N-(4-nitro-3-(trifluoromethyl)phenyl)quinoline-4-carboxamide] | 3.2 to 8.97 | > 10 | > 10 | 3.56 ± 0.44 | > 10 | 8.25 ± 0.67 |  |  |  | 
